One may read the EC50 as the concentration that produces a half-maximal response.

This assay has as its target T1, human mGluR2 (Homo sapiens, UniProt Q14416).
T1 construct: fused on or other part: If FLIPR: the intracellular domain of the human calcium receptor (CASR, P41180) in place of mGluR2's own, and the promiscuous chimeric G protein Gaqi5 fused on; If GTPgammaS: nothing
The assay can be described thus: mGluR2 potentiator assays described herein (FLIPR calcium mobilization in HEK 293 cells expressing chimeric mGluR2/CaR, or [35S]-GTPγS binding with CHO membranes). The class given is cell-based. As to conditions: active in the assays described herein; which assay (FLIPR or GTPγS) is not stated. The text has this: The pharmacological properties of the compounds of the invention can be analyzed using standard assays for functional activity. Examples of glutamate receptor assays are well known in the art as described in, for example, Aramori et al., 1992, Neuron, 8:757; Tanabe et al., 1992, Neuron, 8:169; Miller et al., 1995, J. Neuroscience, 15:6103; Balazs, et al., 1997, J. Neurochemistry, 1997,69:151. The methodology described in these publications is incorporated herein by reference. Conveniently, the compounds of the invention can be studied by means of an assay that measures the mobilization of intracellular calcium, [Ca^2+]i in cells expressing mGluR2.
Fluorometric Imaging Plate Reader (FLIPR) analysis was used to detect allosteric activators of mGluR2 via calcium mobilization. A clonal HEK 293 cell line expressing a chimeric mGluR2/CaR construct comprising the extracellular and transmembrane domains of human mGluR2 and the intracellular domain of the human calcium receptor, fused to the promiscuous chimeric protein Gaqi5 was used. […] At 24-hours prior to analysis, the cells were trypsinized and plated in DMEM at 100,000 cells/well in black sided, clear-bottom, collagen I coated, 96-well plates. The plates were incubated under 5% CO2 at 37° C. overnight. Cells were loaded with 6 μM fluo-3 acetoxymethylester (Molecular Probes, Eugene Oreg.) for 60 min. at room temperature. All assays were performed in a buffer containing 126 mM NaCl, 5 mM KCl, 1 mM MgCl2, 1 mM CaCl2, 20 mM Hepes, 0.06 μM DCG-IV (a Group II mGluR selective agonist), supplemented with 1.0 mg/ml D-glucose and 1.0 mg/ml BSA fraction IV (pH 7.4).
FLIPR experiments were done using a laser setting of 0.8 W and a 0.4 second CCD camera shutter speed. Extracellular fluo-3 was washed off and cells were maintained in 160 μL of buffer and placed in the FLIPR. An addition of test compound (0.01 μM to 30 μM in duplicate) was made after 10 seconds of baseline fluorescent readings were recorded on FLIPR. Fluorescent signals were then recorded for an additional 75 seconds at which point a second addition of DCG-IV (0.2 μM) was made and fluorescent signals were recorded for an additional 65 seconds. Fluorescent signals were measured as the peak height of the response within the sample period. Data was analyzed using Assay Explorer, and EC50 and Emax values (relative to maximum DCG-IV effect) were calculated using a four parameter logistic equation.
A [^35S]-GTPγS binding assay was used to functionally assay mGluR2 receptor activation. The allosteric activator activity of compounds at the human mGluR2 receptor was measured using a [^35S]-GTPγS binding assay with membranes prepared from CHO cells which stably express the human mGluR2. The assay is based upon the principle that agonists bind to G-protein coupled receptors to stimulate GDP-GTP exchange at the G-protein. Since [^35S]-GTPγS is a non-hydrolyzable GTP analog, it can be used to provide an index of GDP-GTP exchange and, thus, receptor activation. The GTPγS binding assay therefore provides a quantitative measure of receptor activation.
Membranes were prepared from CHO cells stably transfected with human mGluR2. […] The amount of radioactivity bound was determined by counting plates on the Packard TopCount. […]

T1 sequence (Q14416 19-819 limits assumed): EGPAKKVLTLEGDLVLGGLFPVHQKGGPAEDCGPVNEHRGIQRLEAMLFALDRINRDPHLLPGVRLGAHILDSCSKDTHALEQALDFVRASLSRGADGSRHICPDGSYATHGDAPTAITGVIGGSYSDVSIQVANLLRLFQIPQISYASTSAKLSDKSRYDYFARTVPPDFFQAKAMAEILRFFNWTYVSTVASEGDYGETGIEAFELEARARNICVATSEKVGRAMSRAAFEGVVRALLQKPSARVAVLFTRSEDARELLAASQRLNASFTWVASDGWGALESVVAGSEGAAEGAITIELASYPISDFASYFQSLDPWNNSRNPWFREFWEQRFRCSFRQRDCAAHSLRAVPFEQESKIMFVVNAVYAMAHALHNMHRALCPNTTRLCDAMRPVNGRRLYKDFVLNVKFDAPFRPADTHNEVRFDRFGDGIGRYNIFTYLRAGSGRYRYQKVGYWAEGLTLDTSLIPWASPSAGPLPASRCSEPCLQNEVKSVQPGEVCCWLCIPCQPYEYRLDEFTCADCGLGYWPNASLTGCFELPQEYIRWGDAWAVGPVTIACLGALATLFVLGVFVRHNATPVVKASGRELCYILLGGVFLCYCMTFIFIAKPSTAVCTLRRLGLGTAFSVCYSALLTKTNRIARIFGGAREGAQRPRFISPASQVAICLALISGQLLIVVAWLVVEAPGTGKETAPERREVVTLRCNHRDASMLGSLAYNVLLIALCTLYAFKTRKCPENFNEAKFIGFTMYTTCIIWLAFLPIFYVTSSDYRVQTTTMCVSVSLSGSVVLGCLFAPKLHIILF

Take `Fc1ccc(C2CCN(Cc3nc4cccc5c4n3CCO5)CC2)cc1` [Example 26.69]: the EC50 was determined as 230 nM.
Turning to `CC1CCc2cc(F)cc3nc(CN4CCN(c5ccc(F)cc5)CC4)n1c23` (centres unmarked) [Example 26.56, 8-fluoro-4-methyl-2-{[4(4-fluorophenyl)piperizin-1-yl]methyl}-5,6-dihydro-4H-imidazo[4,5,1-ij]quinoline], the EC50 amounted to 1580 nM.
On to `CC1CCc2cc(F)cc3nc(CN4CC=C(c5ccc(OC(F)(F)F)cc5)CC4)n1c23` (centres unmarked) [Example 26.65, 8-fluoro-4-methyl-2-{[4-(4-trifluoromethoxyphenyl)-3,6-dihydropyridin-1(2H)-yl]methyl}-5,6-dihydro-4H-imidazo[4,5,1-ij]quinoline], for which the concentration giving a half-maximal response (EC50) worked out at 80 nM.
The value for `O=C1CCN2C(CN3CCC(c4ccc(F)cc4)CC3)=NC3C=C(F)C=C1C32` (centres unmarked) [Example 28.1, 8-Fluoro-2-[4-(4-fluoro-phenyl)-piperidin-1-ylmethyl]-4,5,9a,9b-tetrahydroimidazo[4,5,1-ij]quinolin-6-one] was 1110 nM; that for `CC1CCc2cc(F)cc3nc(CN4CCC(Oc5ccccc5Cl)CC4)n1c23` (centres unmarked) [Example 26.55, 8-fluoro-4-methyl-2-[4-(2-chlorophenoxy)-piperidin-1-ylmethyl]-5,6-dihydro-4H-imidazo[4,5,1-ij]quinoline] was 370 nM.

The values are drawn from patent US20070032469A1, “Tricyclic benzimidazoles and their use as metabotropic glutamate receptor modulators” (AstraZeneca AB, priority 2005, published 2007).
